In the experiment the target is μ-opioid receptors (Homo sapiens, UniProt P35372). As to the kind of experiment: μ-opioid receptor radioligand dose-displacement binding assay ([3H]-diprenorphine). As to the method:
μ- and ORL-1-Receptor-Binding-Assay Procedures
Radioligand dose-displacement binding assays for ORL-1 and […] use 0.1 nM [^3H]-nociceptin or 0.2 nM [^3H]-diprenorphine (NEN, Boston, Mass.), respectively, with […] membrane protein/well in a final volume of […] binding buffer (10 mM MgCl2, 1 mM EDTA, 5% DMSO, 50 mM HEPES, pH 7.4). Reactions are carried out in the absence or presence of increasing concentrations of unlabled nociceptin (American Peptide Company, Sunnyvale, Calif.) or naloxone, for ORL-1 and μ, respectively. All reactions are conducted in 96-deep well polypropylene plates for 1-2 h at room temperature. Binding reactions are terminated by rapid filtration onto 96-well Unifilter GF/C filter plates (Packard, Meriden, Conn.) presoaked in 0.5% polyethylenimine using a 96-well tissue harvester (Brandel, Gaithersburg, Md.) followed performing by three filtration washes with 500 μL of ice-cold binding buffer. Filter plates are subsequently dried at 50° C. for 2-3 h. BetaScint scintillation cocktail (Wallac, Turku, Finland) is added (50 μl/well), and plates are counted using a Packard Top-Count for 1 min/well. The data are analyzed using the one-site competition curve fitting functions in GraphPad PRISM v. 3.0 (San Diego, Calif.).

Chain of μ-opioid receptors (P35372 whole entry): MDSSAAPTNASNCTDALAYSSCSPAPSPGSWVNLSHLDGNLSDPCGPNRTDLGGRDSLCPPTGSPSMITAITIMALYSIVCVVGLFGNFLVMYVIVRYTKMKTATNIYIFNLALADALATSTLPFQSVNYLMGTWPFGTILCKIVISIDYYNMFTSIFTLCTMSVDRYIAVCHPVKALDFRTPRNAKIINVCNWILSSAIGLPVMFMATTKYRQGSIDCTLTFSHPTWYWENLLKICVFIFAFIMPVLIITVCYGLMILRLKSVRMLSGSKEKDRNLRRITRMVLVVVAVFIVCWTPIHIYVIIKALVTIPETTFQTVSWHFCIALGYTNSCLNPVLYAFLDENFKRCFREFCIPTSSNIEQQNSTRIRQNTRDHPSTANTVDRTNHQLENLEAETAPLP

In the case of `CN(C)C(=O)C(CCN1CCC(c2ccccc2)(c2nnn[nH]2)CC1)(c1ccccc1)c1ccccc1` [AFD], the inhibition constant (Ki) is 3.2 nM.

The Ki is a dissociation constant, usually derived from enzyme kinetics or from competition with a known ligand.

The values are drawn from patent US8026254B2, “Therapeutic agents useful for treating pain” (Purdue Pharma, L.P., priority 2002, dated 2011).
